Test system: LPL of the present invention produced by Streptomyces 7825
Experiment: Substrate specificity of the LPL on lipoproteins consisting of various triglycerides
Type: biochemical
Conditions: relative to olive oil as a standard (100%)
Experimental: In Table 1, the activity is expressed relative to an olive oil as a standard (100%).
Titer determination is principally based on the quantitative determination of glycerol formed through the action of LPL on artificial lipoprotein prepared from olive oil as described in Clin. Chim. Acta., Vol. 22, p.
A mixture of 5 g of olive oil and 5 ml of a 5% (v/v) Triton X-100 solution is subjected to ultrasonication for 10 minutes to prepare a substrate emulsion.
Seventy microliters of the abovementioned substrate solution, 20 μl of a 0.5M glycine buffer (pH 8.5), 50 μl of 10% (w/v) BSA, and 55 μl of water are mixed in a test tube, and the system is preheated at 37° C. 5 μl of an enzyme solution having an enzyme concentration adjusted to about 10 U/ml, is added to the system. The system is then allowed to react at 37° C. for 10 minutes. After completion of the reaction, the test tube is soaked in boiling water to stop the reaction. After allowing the test tube to cool, 400 μl of isopropanol is added to the reaction system, followed by stirring. The mixture is then centrifuged. 2 ml of isopropanol is then added to 100 μl of the supernatant liquor. The solution is mixed with 1 ml of the above prepared metaperiodic acid solution and 0.5 ml of the above prepared acetylacetone solution to effect a reaction at 50° C. for 30 minutes. The absorbance of the system at 405 nm is measured. A blank estimation (control) is run on a system containing no enzyme solution.
From the measured values, a calibration curve is prepared using a glycerol solution having a known concentration. Thus the glycerol content of the reaction mixture is determined using the prepared calibration curve.
The enzyme activity is expressed by taking the amount of the enzyme which forms 1 μmol of glycerol per minute as 1 U.

Molecule	Relative Activity [%]
CC(=O)OCC(COC(C)=O)OC(C)=O [Triacetin]	28
CCCC(=O)OCC(COC(=O)CCC)OC(=O)CCC [Tributyrin]	22
CCCCCCCCCC(=O)OCC(COC(=O)CCCCCCCCC)OC(=O)CCCCCCCCC [Tricaprin]	153
CCCCCC(=O)OCC(COC(=O)CCCCC)OC(=O)CCCCC [Tricaproin]	46
CCCCCCCC(=O)OCC(COC(=O)CCCCCCC)OC(=O)CCCCCCC [Tricaprylin]	148
CCCCCCCCCCCC(=O)OCC(COC(=O)CCCCCCCCCCC)OC(=O)CCCCCCCCCCC [Trilaurin]	234
CCCCCCCC/C=C\CCCCCCCC(=O)OCC(COC(=O)CCCCCCC/C=C\CCCCCCCC)OC(=O)CCCCCCC/C=C\CCCCCCCC [Triolein]	75
CCCCCCCCCCCCCCCC(=O)OCC(COC(=O)CCCCCCCCCCCCCCC)OC(=O)CCCCCCCCCCCCCCC [Tripalmitin]	99
CCCCCCCCCCCCCCCCCC(=O)OCC(COC(=O)CCCCCCCCCCCCCCCCC)OC(=O)CCCCCCCCCCCCCCCCC [Tristearin]	29

Test system: LPL of the present invention produced by Streptomyces 7825
Experiment: Inhibition of the LPL
Type: biochemical
Conditions: 400 μg/ml protamine sulfate

Molecule	inhibition of LPL
protamine sulfate	about 30%

Same assay, conditions: 10 mM deoxycholic acid

Molecule	inhibition of LPL
C[C@H](CCC(=O)O)[C@H]1CC[C@H]2[C@@H]3CC[C@@H]4C[C@H](O)CC[C@]4(C)[C@H]3C[C@H](O)[C@]12C [deoxycholic acid]	about 40%

Same assay, conditions: 3M NaCl

Molecule	inhibition of LPL
[Cl-].[Na+] [NaCl]	about 40%

From patent US5232846A, “Method for producing a thermostable lipoprotein lipase from streptomyces” (Unitika Ltd., priority 1988, dated 1993)
